Measured values: patent publication US20090149427A1, “PHARMACEUTICALLY ACCEPTABLE SALTS AND HYDRATES OF RISEDRONIC ACID” (Pliva Hrvatska d.o.o., priority 2005, published 2009)

Settings: humidity range 0-90% RH at 25° C., over a time period of 1200 minutes, FIG. 7
Method: FIG. 7: Izotherm diagram for tri-sodium risedronate dihydrate showing the sorption and desorption isotherm for tri-sodium risedronate dihydrate measured in a humidity range from 0-90% RH at 25° C. at DVS 1 (Surface Measurement System).

## O.O.O=P([O-])([O-])C(O)(Cc1cccnc1)P(=O)([O-])O.[Na+].[Na+].[Na+] [tri-sodium risedronate dihydrate]
  hygroscopicity (water absorption when humidity is raised): absorbs a minimum quantity of water
